Assays:
[1] = system: NIH3T3^MEN2A(C634R) cells; test: Reversion of transformed morphologic phenotype of NIH3T3 MEN2A(C634R) transfectants; type: cell-based, murine; conditions: 6 μM, 24 h, phase-contrast microscope
Experimental: (§1) FIG. 1. Effects of Cpd 1 on NIH3T3^MEN2A(C634R) transfectants expressing exogenous RET/MEN2A(C634R). […] Cells were exposed to 6 μM Cpd1 for 24 h and then photographed under a phase-contrast microscope (original magnification ×100). B) Antiproliferative effect. NIH3T3^MEN2A(C634R) cells and the parental NIH3T3 cells were treated with increasing concentrations of the drug for 72 h and then counted with a Coulter Counter. […] C) Inhibition of Ret/MEN2A(C634R) autophosphorylation and expression. Cells were treated with solvent (−) or 10 μM Cpd1 (+), for the indicated times. Whole cell-lysates were prepared and subjected to SDS-PAGE and Western blotting with anti-pTyr antibody. After stripping, the filter was reblotted with anti-Ret antibody. Arrows indicate the partial and fully glycosilated forms of the Ret/MEN2A receptor.
The following human medullary thyroid carcinoma (MTC) cell lines were used in this study. The TT cell line derived from a MEN2A-associated MTC characterized by expression of the RET oncogene carrying the mutation C634W. The MZ-CRC-1 cell line derived from MEN2B-associated MTC characterized by expression of the RET oncogene carrying the mutation M918T. […]

Ret/MEN2A(C634R) = target: T1, Ret/MEN2A(C634R) (Homo sapiens, UniProt P07949, C634R); test: Ret/MEN2A(C634R) autophosphorylation and expression in NIH3T3 transfectants (Western blotting); type: cell-based; conditions: 10 μM
T1 construct: expressed in transfected cells; host or cells: NIH3T3 (mouse fibroblasts)
Experimental: as §1
The following human medullary thyroid carcinoma (MTC) cell lines were used in this study. The TT cell line derived from a MEN2A-associated MTC characterized by expression of the RET oncogene carrying the mutation C634W. The MZ-CRC-1 cell line derived from MEN2B-associated MTC characterized by expression of the RET oncogene carrying the mutation M918T. TT cells were cultivated in Ham's F12 medium (BioWhittaker, Verviers, Belgium) supplemented with 15% fetal calf serum (FCS) (Life Technologies, Inc., Gaithersburg, Md.) whereas MZ-CRC-1 cells were grown in Dulbecco's modified Eagle's medium (DMEM) (BioWhittaker) supplemented with 10% FCS. […]
(§2) For whole-cell extract preparation, cells were lysed in sodium dodecyl sulfate (SDS) sample buffer (62.5 mM Tris-HCl (pH 6.8), 2% SDS) with 1 mM PMSF, 10 μg/ml pepstatin, 12.5 μg/ml leupeptin, 100 KIU aprotinin, 1 mM sodium orthovanadate, 1 mM sodium molybdate. Protein concentration was determined in appropriately diluted aliquots by the bicinchionic acid (BCA) method (Pierce, Rockford, Ill.), then samples were adjusted to a final concentration of 10% glycerol, 5% β-mercaptoethanol, 0.001% bromophenol blue. […]

Ret/MEN2B(M918T) = target: T2, Ret/MEN2B(M918T) (Homo sapiens, UniProt P07949, M918T); test: Ret autophosphorylation and expression in MZ-CRC-1 cells (Western blotting); type: cell-based; conditions: 24 h
T2 construct: endogenous in cells; host or cells: MZ-CRC-1 (human medullary thyroid carcinoma)
Experimental: FIG. 2. Effects of Cpd1 on human MTC cell lines harboring MEN2-associated RET mutants. A) Inhibition of Ret autophosphorylation. TT and MZ-CRC-1 cells, expressing respectively RET/MEN2A(C634W) and RET/MEN2B(M918T), were treated with the indicated concentrations of Cpd1, for 24 h. Control cells (C) received the solvent. Whole cell extracts were processed for Western blotting and probed with anti-pTyr and anti-Ret antibodies. […] B) Antiproliferative effect. TT and MZ-CRC-1 cells were treated with increasing concentrations of Cpd 1 for 7 days and then counted with a Coulter Counter.
(§3) The following human medullary thyroid carcinoma (MTC) cell lines were used in this study. The TT cell line derived from a MEN2A-associated MTC characterized by expression of the RET oncogene carrying the mutation C634W. […]
as §2

FGF-R1 = target: T3, FGF-R1 (Mus musculus, UniProt P16092); test: FGF-R1 autophosphorylation and expression in Swiss3T3 cells; type: cell-based; conditions: 18 h
T3 construct: endogenous in cells; host or cells: Swiss3T3 (mouse fibroblasts)
Experimental: FIG. 6. Inhibition of autophosphorylation and expression of FGF-R1 and FGF-R3 receptors in whole cells by Cpd1. A): Swiss3T3 cells were serum starved for 24 h and then treated with Cpd1 at the indicated concentrations, for 18 h. After stimulation with 100 ng/ml FGF for 5 min, whole cell lysates were prepared and subjected to Western blotting with anti-pTyr or anti-FGF-R1. Protein loading by anti-actin blot is shown. B): NIH3T3 transformed by the FGF-R3 mutant Y373C were treated with the indicated concentrations, for 72 h. Cell extracts were immunoprecipitated with anti-FGF-R3 and then subjected to Western blotting with anti p-Tyr or anti-FGF-R3.
as §3, §2

[2] = system: NIH3T3 cells transformed with the RET/PTC1 oncogene; conditions: cited from earlier work

T1 sequence (P07949 29-1072 isoform P07949-2 C634R limits assumed): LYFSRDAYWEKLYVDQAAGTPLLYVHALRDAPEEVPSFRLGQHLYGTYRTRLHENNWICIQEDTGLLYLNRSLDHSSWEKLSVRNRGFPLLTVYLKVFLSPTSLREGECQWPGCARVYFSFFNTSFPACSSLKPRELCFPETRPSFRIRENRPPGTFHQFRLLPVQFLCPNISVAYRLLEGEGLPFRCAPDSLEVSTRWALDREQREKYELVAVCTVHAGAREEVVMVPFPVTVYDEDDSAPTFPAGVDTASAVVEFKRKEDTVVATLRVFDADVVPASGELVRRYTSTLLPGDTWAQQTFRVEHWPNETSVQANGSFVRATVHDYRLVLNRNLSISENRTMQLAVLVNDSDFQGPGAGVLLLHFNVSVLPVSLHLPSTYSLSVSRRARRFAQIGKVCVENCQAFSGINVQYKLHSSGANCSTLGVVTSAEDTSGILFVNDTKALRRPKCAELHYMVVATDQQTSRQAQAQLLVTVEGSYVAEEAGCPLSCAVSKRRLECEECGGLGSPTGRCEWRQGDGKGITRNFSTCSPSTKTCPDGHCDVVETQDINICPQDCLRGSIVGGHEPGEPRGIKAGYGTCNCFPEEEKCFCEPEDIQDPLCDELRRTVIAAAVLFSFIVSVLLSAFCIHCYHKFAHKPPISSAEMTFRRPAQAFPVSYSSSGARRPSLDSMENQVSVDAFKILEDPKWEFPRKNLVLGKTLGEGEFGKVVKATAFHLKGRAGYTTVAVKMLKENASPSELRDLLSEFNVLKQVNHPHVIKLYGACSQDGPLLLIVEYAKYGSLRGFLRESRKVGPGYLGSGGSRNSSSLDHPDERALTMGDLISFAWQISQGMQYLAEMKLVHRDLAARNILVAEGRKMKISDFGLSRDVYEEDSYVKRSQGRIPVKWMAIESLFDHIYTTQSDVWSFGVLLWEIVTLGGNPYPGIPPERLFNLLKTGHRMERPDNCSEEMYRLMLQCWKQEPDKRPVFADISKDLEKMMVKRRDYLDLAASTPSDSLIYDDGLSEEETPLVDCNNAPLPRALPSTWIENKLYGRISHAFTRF
T3 sequence (P16092 22-822): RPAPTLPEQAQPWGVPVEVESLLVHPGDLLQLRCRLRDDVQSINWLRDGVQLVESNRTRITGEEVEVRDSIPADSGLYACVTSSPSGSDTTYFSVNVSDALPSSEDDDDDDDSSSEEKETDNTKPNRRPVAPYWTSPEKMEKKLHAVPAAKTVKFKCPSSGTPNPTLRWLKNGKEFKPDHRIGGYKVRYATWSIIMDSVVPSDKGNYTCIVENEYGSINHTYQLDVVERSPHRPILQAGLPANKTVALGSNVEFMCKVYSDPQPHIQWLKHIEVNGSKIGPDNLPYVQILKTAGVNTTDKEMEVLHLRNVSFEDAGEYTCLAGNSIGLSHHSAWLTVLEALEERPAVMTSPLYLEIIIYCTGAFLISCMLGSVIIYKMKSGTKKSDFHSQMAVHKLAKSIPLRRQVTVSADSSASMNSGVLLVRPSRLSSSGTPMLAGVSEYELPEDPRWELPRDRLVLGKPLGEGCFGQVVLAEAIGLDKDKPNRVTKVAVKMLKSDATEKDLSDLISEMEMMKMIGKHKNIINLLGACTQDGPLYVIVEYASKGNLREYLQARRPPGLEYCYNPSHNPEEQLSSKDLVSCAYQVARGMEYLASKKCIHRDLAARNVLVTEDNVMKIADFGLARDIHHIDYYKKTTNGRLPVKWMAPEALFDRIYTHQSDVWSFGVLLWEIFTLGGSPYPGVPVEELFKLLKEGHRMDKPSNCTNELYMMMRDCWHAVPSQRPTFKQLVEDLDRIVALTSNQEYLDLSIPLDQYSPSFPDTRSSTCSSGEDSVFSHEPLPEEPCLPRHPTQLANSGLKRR
T2 sequence (P07949 29-1114 M918T): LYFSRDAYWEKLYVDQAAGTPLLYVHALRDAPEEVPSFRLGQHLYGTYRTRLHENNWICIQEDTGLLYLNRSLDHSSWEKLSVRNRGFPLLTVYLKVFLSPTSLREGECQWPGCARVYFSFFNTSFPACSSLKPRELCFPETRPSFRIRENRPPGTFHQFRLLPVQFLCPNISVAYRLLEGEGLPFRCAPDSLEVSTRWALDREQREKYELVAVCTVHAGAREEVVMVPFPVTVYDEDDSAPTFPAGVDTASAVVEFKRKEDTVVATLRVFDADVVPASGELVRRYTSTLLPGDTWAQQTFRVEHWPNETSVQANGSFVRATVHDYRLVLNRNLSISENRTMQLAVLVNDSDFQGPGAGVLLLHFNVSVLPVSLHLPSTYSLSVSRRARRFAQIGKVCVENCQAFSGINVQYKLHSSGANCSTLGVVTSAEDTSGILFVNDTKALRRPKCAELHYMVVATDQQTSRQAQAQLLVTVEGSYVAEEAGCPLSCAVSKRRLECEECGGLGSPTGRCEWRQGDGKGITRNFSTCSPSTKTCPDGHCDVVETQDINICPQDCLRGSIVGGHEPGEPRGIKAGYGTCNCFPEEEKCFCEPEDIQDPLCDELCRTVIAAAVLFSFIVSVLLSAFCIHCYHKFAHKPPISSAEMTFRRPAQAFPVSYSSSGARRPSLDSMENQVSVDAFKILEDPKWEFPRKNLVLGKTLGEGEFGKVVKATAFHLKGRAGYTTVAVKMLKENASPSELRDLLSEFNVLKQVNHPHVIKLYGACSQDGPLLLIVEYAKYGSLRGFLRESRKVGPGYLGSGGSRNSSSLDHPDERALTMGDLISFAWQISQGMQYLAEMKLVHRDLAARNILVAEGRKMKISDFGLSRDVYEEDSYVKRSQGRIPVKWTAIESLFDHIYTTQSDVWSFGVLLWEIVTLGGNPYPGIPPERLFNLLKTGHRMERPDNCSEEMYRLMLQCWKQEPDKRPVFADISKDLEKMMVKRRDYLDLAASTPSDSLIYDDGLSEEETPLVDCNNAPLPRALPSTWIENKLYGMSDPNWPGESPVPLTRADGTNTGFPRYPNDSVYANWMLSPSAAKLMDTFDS

SMILES: COc1cc2c(cc1OC)/C(=C\c1ccc(O)cc1)C(=O)N2 [Cpd 1, (E)-1,3-dihydro-5,6-dimethoxy-3-[(4-hydroxyphenyl)methylene]-2H-indol-2-one]
- Transformed morphologic phenotype [1]: Reversion of the transformed morphologic phenotype
- Ret/MEN2A(C634R) tyrosine phosphorylation (Ret/MEN2A(C634R); 2 h of exposure): partially dephosphorylated
- Ret/MEN2A(C634R) receptor expression (Ret/MEN2A(C634R); longer times than 2 h): reduced expression
- Ret/MEN2A(C634R) tyrosine phosphorylation (Ret/MEN2A(C634R); longer times than 2 h): complete tyrosine dephosphorylation
- Tyrosine phosphorylation of Ret receptor (Ret/MEN2B(M918T)): dose-dependent inhibition
- Ret receptor expression (Ret/MEN2B(M918T); highest concentrations): reduced expression
- FGF-R1 tyrosine phosphorylation (FGF-R1; Swiss3T3 cells serum starved, 100 ng/ml FGF 5 min): dose-dependent inhibition
- FGF-R1 expression (FGF-R1; Swiss3T3 cells): dose-dependent inhibition
- Reverting the morphologic phenotype [2]: particularly effective
